In US10413565B2, “Nanostructures for modulating intercellular communication and uses thereof” (Northwestern University, priority 2014, dated 2019):

What was measured:
Format in all cases: cell-based
A375 melanoma cells [1] = experiment: 3H-cholesterol efflux assay; details: BLT-1 1 μM; acceptors 500 nM
Method: A375 cells were cultured in DMEM containing 1 μCi/mL [1,2,-^3H] cholesterol (Perkin-Elmer) overnight to label the cellular cholesterol pool. Cells were then washed in PBS and resuspended in serum free media. Human HDL or HDL NPs were added to the culture media and allowed to incubate for 6 hours. Cell culture media was then collected and subjected to liquid scintillation counting. The percentage of cholesterol efflux was determined by using the formula counts media/(counts cells+counts media)×100. Efflux of cholesterol in the absence of an acceptor was also measured and interpreted along with other results.

A375 melanoma cells [2] = experiment: Exosome uptake assay (DiI-labeled exosomes, flow cytometry / fluorescence microscopy); details: 24 hrs treatment
Method: A375 melanoma exosomes were isolated from conditioned media using differential ultracentrifugation [Thery et al. 2006]. In brief, cells were cultured in exosome deficient media for 72 hours at which point the cell culture media was collected and centrifuged at 2000×g to remove dead cells and debris. Next, larger vesicles and cell debris were removed by centrifugation at 10,000×g for 30 minutes. Exosomes were then pelleted by centrifugation at 100,000×g for 70 minutes, and subsequently washed in PBS by another 100,000×g centrifugation step for 70 minutes. Exosomes were re-suspended in PBS. Protein concentration of exosomes was analyzed by BCA Protein assay (Thermo Scientific). […] In order to test if HDL NPs quenched exosome fluorescence, we incubated HDL NPs with fluorescently labeled exosomes for 4 hours and then measured the fluorescent signal.
The cellular uptake of exosomes was measured by fluorescence microscopy and flow cytometry after cell treatments. […] For fluorescence microscopy experiments, cells were plated on coverslips coated with 0.1% gelatin. Exosome uptake was measured over the course of 24 hours using a BD LSR Fortessa flow cytometer (Robert H. Lurie Comprehensive Cancer Center Flow Cytometry Core) or a Nikon A1R fluorescence microscope (Northwestern University Nikon Imaging Facility).

GFP-SR-B1 = molecular target: T1, GFP-SR-B1 (Homo sapiens, UniProt Q8WTV0); experiment: GFP-SR-B1 clustering and dynamics (confocal imaging, computer vision analysis); details: A375 cells expressing GFP-SR-B1, 24 hrs treatment
T1 construct: expressed in transfected cells
T1 sequence (Q8WTV0 1-552): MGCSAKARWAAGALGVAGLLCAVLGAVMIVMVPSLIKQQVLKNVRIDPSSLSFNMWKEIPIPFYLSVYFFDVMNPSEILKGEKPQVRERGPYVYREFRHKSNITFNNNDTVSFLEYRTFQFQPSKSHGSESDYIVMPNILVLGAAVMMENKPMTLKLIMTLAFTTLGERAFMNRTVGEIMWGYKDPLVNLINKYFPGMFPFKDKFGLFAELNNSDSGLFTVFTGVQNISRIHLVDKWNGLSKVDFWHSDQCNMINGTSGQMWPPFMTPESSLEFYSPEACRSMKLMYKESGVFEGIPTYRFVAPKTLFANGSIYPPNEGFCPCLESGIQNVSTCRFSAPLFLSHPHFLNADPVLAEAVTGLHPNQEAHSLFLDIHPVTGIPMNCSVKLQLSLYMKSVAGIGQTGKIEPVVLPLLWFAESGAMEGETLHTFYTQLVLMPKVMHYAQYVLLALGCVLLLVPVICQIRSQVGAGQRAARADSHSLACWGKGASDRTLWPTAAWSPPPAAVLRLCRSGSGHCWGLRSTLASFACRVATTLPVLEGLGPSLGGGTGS
Description: A semi-automated approach using ImageJ software was employed to identify the areas of GFP-SR-B1 in the images. After background subtraction, an unsharp mask filter with a large radius was applied to locally enhance contrast. Manual thresholding of filtered images was then used to generate a segment mask, which could be overlaid on the original, background subtracted image to facilitate measurement of domain parameters such as area and mean intensity. […]
To calculate the linearity of the motion, we introduced a parameter rho (FIG. 3C), which is calculated as the ratio between the head-to-tail (first point to the end point) trajectory distance divided by the total distance traveled by fluorescent domains. […]
Fluorescence microscopy was performed using an A1R confocal microscope with assistance from the Northwestern University Center for Advanced Microscopy. Images were analyzed using NIS Elements (Nikon) and ImageJ (NIH) software. Live cell confocal fluorescence microscopy to assess lipid raft dynamics was performed with a Nikon Eclipse T1 microscope equipped with an Andor iXon Ultra 897 camera and analyzed using Metamorph software (Molecular Devices).

CCCCCCC1CCCC1=NNC(N)=S (stereo not drawn) [BLT-1, Blocks Lipid Transport 1]
3H-cholesterol efflux to hHDL and HDL NP with BLT-1 treatment (A375 melanoma cells [1]): reduced efflux to both hHDLs and HDL NPs
inhibition of cellular exosome uptake (A375 melanoma cells [2]): did not result in the inhibition of exosome uptake
clustering of GFP-SR-B1 (GFP-SR-B1): did not result in the inhibition of exosome uptake or clustering of the receptor
